According to PubChem BioAssay AID2060327 (Molecular Pharmacology Branch, DTP, NCI, 2025):

System: PC-3 multi-cell spheroids, viability
Experiment: Anticancer human tumor PC-3 cell line growth inhibition [IpAb];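 also: spheroids exposed to compounds for 7 days before readout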;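 as to viability, T/C: 100% = DMSO vehicle control wells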
Settings: for IC50: curve of first compound; for viability, T/C: stronger effect = lower value; active = viability on the fitted dose curve at most 10% of control; inactive = the rest
Procedure, shortened: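 Combinations with ipatasertib or abemaciclib were tested on tumour spheroids holding HUVEC (25%) and MSC (15%) alongside 60% malignant cells. Top concentration was at or near clinical Cmax (10 microM if undefined), descending in half-log steps.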

[1] = second compound 0.1 µM, first compound 0.0316 µM
[2] = second compound 0.1 µM, first compound 0.1 µM
[3] = second compound 0.1 µM, first compound 0.316 µM
[4] = second compound 0.1 µM, first compound 1 µM
[5] = second compound 0.1 µM, first compound 3.16 µM
[6] = second compound 0.1 µM, first compound 10 µM
[7] = second compound 0.316 µM, first compound 0.0316 µM
[8] = second compound 0.316 µM, first compound 0.1 µM
[9] = second compound 0.316 µM, first compound 0.316 µM
[10] = second compound 0.316 µM, first compound 1 µM
[11] = second compound 0.316 µM, first compound 3.16 µM
[12] = second compound 0.316 µM, first compound 10 µM
[13] = second compound 1 µM, first compound 0.0316 µM
[14] = second compound 1 µM, first compound 0.1 µM
[15] = second compound 1 µM, first compound 0.316 µM
[16] = second compound 1 µM, first compound 1 µM
[17] = second compound 1 µM, first compound 3.16 µM
[18] = second compound 1 µM, first compound 10 µM
[19] = second compound 3.16 µM, first compound 0.0316 µM
[20] = second compound 3.16 µM, first compound 0.1 µM
[21] = second compound 3.16 µM, first compound 0.316 µM
[22] = second compound 3.16 µM, first compound 1 µM
[23] = second compound 3.16 µM, first compound 3.16 µM
[24] = second compound 3.16 µM, first compound 10 µM
[25] = second compound 10 µM, first compound 0.0316 µM
[26] = second compound 10 µM, first compound 0.1 µM
[27] = second compound 10 µM, first compound 0.316 µM
[28] = second compound 10 µM, first compound 1 µM
[29] = second compound 10 µM, first compound 3.16 µM
[30] = second compound 10 µM, first compound 10 µM

Cn1ncc(Cl)c1-c1cc(C(=O)NC(CN)Cc2cccc(F)c2)sc1Cl (stereo not given) + CC(C)NCC(C(=O)N1CCN(c2ncnc3c2C(C)CC3O)CC1)c1ccc(Cl)cc1
81.1 nM: IC50 (second compound 0.1 µM)
inactive: viability, T/C [1] 59.9% | viability, T/C [2] 48.8% | viability, T/C [3] 34.3% | viability, T/C [4] 19.8% | viability, T/C [5] 16.9% | viability, T/C [7] 35.7% | viability, T/C [8] 40.3% | viability, T/C [9] 29.2% | viability, T/C [10] 17.7% | viability, T/C [11] 14.1% | viability, T/C [13] 24.3% | viability, T/C [14] 24.5% | viability, T/C [15] 19.9% | viability, T/C [16] 16.4% | viability, T/C [17] 15.8% | viability, T/C [19] 15.2% | viability, T/C [20] 15.8% | viability, T/C [21] 15.5% | viability, T/C [22] 16% | viability, T/C [25] 13.6% | viability, T/C [26] 14.1% | viability, T/C [27] 13.6% | viability, T/C [28] 14.6%
< 31.6 nM: IC50 (second compound 0.316 µM) | IC50 (second compound 1 µM) | IC50 (second compound 3.16 µM) | IC50 (second compound 10 µM)
active: viability, T/C [6] 0.15% | viability, T/C [12] 0.17% | viability, T/C [18] 0.14% | viability, T/C [23] 15.3% | viability, T/C [24] 0.26% | viability, T/C [29] 13.9% | viability, T/C [30] 0.16%

Cn1nccc1Nc1nccc(-c2ccn(C(CO)c3ccc(Cl)c(F)c3)c(=O)c2)n1 (stereo not given) + CC(C)NCC(C(=O)N1CCN(c2ncnc3c2C(C)CC3O)CC1)c1ccc(Cl)cc1
inactive: viability, T/C [1] 76.7% | viability, T/C [2] 77.3% | viability, T/C [3] 83.1% | viability, T/C [4] 105% | viability, T/C [5] 127% | viability, T/C [6] 104% | viability, T/C [7] 42.8% | viability, T/C [8] 43.8% | viability, T/C [9] 41.9% | viability, T/C [10] 48% | viability, T/C [11] 88.1% | viability, T/C [12] 76.9% | viability, T/C [13] 20.4% | viability, T/C [14] 24.2% | viability, T/C [15] 27.2% | viability, T/C [16] 34.5% | viability, T/C [17] 59.1% | viability, T/C [18] 34.3% | viability, T/C [19] 14.2% | viability, T/C [20] 15.4% | viability, T/C [21] 15.1% | viability, T/C [22] 19.7% | viability, T/C [23] 23.4% | viability, T/C [24] 13.8% | viability, T/C [25] 12.7% | viability, T/C [26] 13.3% | viability, T/C [27] 12.2% | viability, T/C [28] 14.3% | viability, T/C [29] 17.4% | viability, T/C [30] 10.8%
> 10000 nM: IC50 (second compound 0.1 µM)
< 31.6 nM: IC50 (second compound 0.316 µM) | IC50 (second compound 1 µM) | IC50 (second compound 3.16 µM) | IC50 (second compound 10 µM)

Cn1ncnc1[C@H]1c2n[nH]c(=O)c3cc(F)cc(c23)N[C@@H]1c1ccc(F)cc1 + CC(C)NCC(C(=O)N1CCN(c2ncnc3c2C(C)CC3O)CC1)c1ccc(Cl)cc1
< 0.316 nM: IC50 (second compound 0.316 µM) | IC50 (second compound 1 µM) | IC50 (second compound 3.16 µM) | IC50 (second compound 10 µM)
inactive: viability, T/C (second compound 0.1 µM, first compound 0.000316 µM) 78.5% | viability, T/C (second compound 0.1 µM, first compound 0.001 µM) 71.4% | viability, T/C (second compound 0.1 µM, first compound 0.00316 µM) 52.4% | viability, T/C (second compound 0.1 µM, first compound 0.01 µM) 51.8% | viability, T/C [1] 51.6% | viability, T/C [2] 40.1% | viability, T/C (second compound 0.316 µM, first compound 0.000316 µM) 47.1% | viability, T/C (second compound 0.316 µM, first compound 0.001 µM) 43.8% | viability, T/C (second compound 0.316 µM, first compound 0.00316 µM) 42.9% | viability, T/C (second compound 0.316 µM, first compound 0.01 µM) 40.3% | viability, T/C [7] 37.9% | viability, T/C [8] 32.8% | viability, T/C (second compound 1 µM, first compound 0.000316 µM) 25.3% | viability, T/C (second compound 1 µM, first compound 0.001 µM) 23.3% | viability, T/C (second compound 1 µM, first compound 0.00316 µM) 25.2% | viability, T/C (second compound 1 µM, first compound 0.01 µM) 18.4% | viability, T/C [13] 19.9% | viability, T/C [14] 18.7% | viability, T/C (second compound 3.16 µM, first compound 0.000316 µM) 14.2% | viability, T/C (second compound 3.16 µM, first compound 0.001 µM) 14.1% | viability, T/C (second compound 3.16 µM, first compound 0.00316 µM) 14.7% | viability, T/C (second compound 3.16 µM, first compound 0.01 µM) 13.1% | viability, T/C [19] 13.2% | viability, T/C [20] 13.8% | viability, T/C (second compound 10 µM, first compound 0.000316 µM) 14.8% | viability, T/C (second compound 10 µM, first compound 0.001 µM) 14% | viability, T/C (second compound 10 µM, first compound 0.00316 µM) 13.3% | viability, T/C (second compound 10 µM, first compound 0.01 µM) 11% | viability, T/C [25] 11.6% | viability, T/C [26] 11.3%
13.3 nM: IC50 (second compound 0.1 µM)
